Conditions: 101.33 kPa, Liquid; for viscosity: Concentric cylinders viscometry; for mass density: Vibrating tube method

CCCCCCCC/C=C\CCCCCCCC(=O)OCC [ethyl (Z)-9-octadeceneoate]
Conditions | mass density [kg/m3] | viscosity [mPa·s]
278.15 K | 880.5 | 10.39
283.15 K | 876.9 | 8.839
288.15 K | 873.2 | 7.595
293.15 K | 869.5 | 6.591
298.15 K | 865.9 | 5.769
303.15 K | 862.2 | 5.092
308.15 K | 858.5 | 4.525
313.15 K | 854.9 | 4.048
318.15 K | 851.3 | 3.641
323.15 K | 847.6 | 3.292
328.15 K | 844 | 2.99
333.15 K | 840.4 | 2.729
338.15 K | 836.8 | 2.502
343.15 K | 833.1 | 2.301
348.15 K | 829.5 | 2.124
353.15 K | 825.9 | 1.967
358.15 K | 822.3 | 1.827
363.15 K | 818.7 | 1.702

CCCCCCCCCC(=O)OCC [ethyl decanoate]
Conditions | mass density [kg/m3] | viscosity [mPa·s]
283.15 K | 872.5 | 2.896
288.15 K | 868.4 | 2.588
293.15 K | 864.3 | 2.326
298.15 K | 860.2 | 2.103
303.15 K | 856.2 | 1.911
308.15 K | 852.1 | 1.745
313.15 K | 848 | 1.6
318.15 K | 843.9 | 1.473
323.15 K | 839.8 | 1.36
328.15 K | 835.7 | 1.259
333.15 K | 831.6 | 1.169
338.15 K | 827.5 | 1.089
343.15 K | 823.4 | 1.017
348.15 K | 819.2 | 0.9516
353.15 K | 815.1 | 0.8929

CCCCCCCCCCCC(=O)OCC [ethyl dodecanoate]
Conditions | mass density [kg/m3] | viscosity [mPa·s]
283.15 K | 870.3 | 4.335
288.15 K | 866.4 | 3.813
293.15 K | 862.4 | 3.38
298.15 K | 858.5 | 3.015
303.15 K | 854.6 | 2.707
308.15 K | 850.7 | 2.446
313.15 K | 846.8 | 2.22
318.15 K | 842.9 | 2.024
323.15 K | 839 | 1.853
328.15 K | 835.1 | 1.704
333.15 K | 831.1 | 1.57
338.15 K | 827.2 | 1.453
343.15 K | 823.3 | 1.349
348.15 K | 819.4 | 1.254
353.15 K | 815.4 | 1.171

CCCCCCCCCCCCCCCC(=O)OCC [ethyl hexadecanoate]
Conditions | mass density [kg/m3] | viscosity [mPa·s]
303.15 K | 852.6 | 5.011
308.15 K | 848.9 | 4.44
313.15 K | 845.2 | 3.956
318.15 K | 841.5 | 3.547
323.15 K | 837.9 | 3.197
328.15 K | 834.2 | 2.897
333.15 K | 830.5 | 2.637
338.15 K | 826.9 | 2.412
343.15 K | 823.2 | 2.214
348.15 K | 819.5 | 2.039
353.15 K | 815.9 | 1.884
358.15 K | 812.2 | 1.746
363.15 K | 808.6 | 1.623

CCCCCCCCCCCCCCCCCC(=O)OCC [ethyl octadecanoate]
Conditions | mass density [kg/m3] | viscosity [mPa·s]
313.15 K | 844.8 | 5.082
318.15 K | 841.1 | 4.529
323.15 K | 837.5 | 4.057
328.15 K | 833.9 | 3.654
333.15 K | 830.3 | 3.307
338.15 K | 826.7 | 3.007
343.15 K | 823.1 | 2.744
348.15 K | 819.5 | 2.515
353.15 K | 815.9 | 2.313
358.15 K | 812.3 | 2.135
363.15 K | 808.7 | 1.978

CCCCCCCCCCCCCC(=O)OCC [ethyl tetradecanoate]
Conditions | mass density [kg/m3] | viscosity [mPa·s]
283.15 K | 868.7 | 6.26
288.15 K | 864.8 | 5.43
293.15 K | 861 | 4.749
298.15 K | 857.2 | 4.188
303.15 K | 853.4 | 3.721
308.15 K | 849.6 | 3.328
313.15 K | 845.8 | 2.993
318.15 K | 842 | 2.706
323.15 K | 838.2 | 2.458
328.15 K | 834.5 | 2.242
333.15 K | 830.7 | 2.055
338.15 K | 826.9 | 1.889
343.15 K | 823.1 | 1.743
348.15 K | 819.4 | 1.614
353.15 K | 815.6 | 1.499

Reference: the NIST ThermoML archive (doi:10.1021/je100042c)
